Reference: the supplement of paper PMC4862054

What was measured:
BT-549 [1] = assay: normalised viability (% of control), CellTiter-Blue; higher = more viable cells (about 100 = DMSO control); details: 100 nM; incubation time: 72 h
How it was run: (§1)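 Seeded at 20 µl suspension per well onto compound-loaded 384-well plates, breast cancer cell lines were incubated 72 h. CellTiter-Blue fluorescence at 560/590 nm was then read, with each plate normalised to vehicle (100) and a positive kill control (0). Normalised viability is reported at a single listed concentration of the series.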

CAL-148 [2] = assay: as above; details: 10 nM; incubation time: 72 h
How it was run: as §1

MDA-MB-453 [3] = assay: as above; details: 10 nM; incubation time: 72 h
How it was run: as §1

MFM-223 [4] = assay: as above; details: 100 nM; incubation time: 72 h
How it was run: as §1

BT-474 = assay: as above; details: incubation time: 72 h
How it was run: as §1

BT-549 [5] = assay: as above; details: incubation time: 72 h
How it was run: as §1

CAL-120 [6] = assay: as above; details: incubation time: 72 h
How it was run: as §1

CAL-148 [7] = assay: as above; details: incubation time: 72 h
How it was run: as §1

CAL-51 = assay: as above; details: incubation time: 72 h
How it was run: as §1

CAL-85-1 = assay: as above; details: incubation time: 72 h
How it was run: as §1

DU-4475 = assay: as above; details: incubation time: 72 h
How it was run: as §1

HCC1143 = assay: as above; details: incubation time: 72 h
How it was run: as §1

HCC1599 = assay: as above; details: incubation time: 72 h
How it was run: as §1

HCC1937 = assay: as above; details: incubation time: 72 h
How it was run: as §1

HDQ-P1 = assay: as above; details: incubation time: 72 h
How it was run: as §1

Hs578T = assay: as above; details: incubation time: 72 h
How it was run: as §1

MDA-MB-231 = assay: as above; details: incubation time: 72 h
How it was run: as §1

MDA-MB-436 = assay: as above; details: incubation time: 72 h
How it was run: as §1

MDA-MB-453 [8] = assay: as above; details: incubation time: 72 h
How it was run: as §1

MDA-MB-468 = assay: as above; details: incubation time: 72 h
How it was run: as §1

MFM-223 [9] = assay: as above; details: incubation time: 72 h
How it was run: as §1

SK-BR-3 = assay: as above; details: incubation time: 72 h
How it was run: as §1

CAL-120 [10] = assay: drug sensitivity score (DSS), CellTox Green (DSS (AUC-based score)); higher = stronger drug effect (viability inhibition or cytotoxicity); extreme values may be limits of the assay; details: incubation time: 72 h
How it was run: (§2)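 Normalisation on every plate relied on 0.1 % DMSO and a positive kill control. The plates, 384-well format, held compound at 5 concentrations 10-fold apart across a compound-specific 10,000-fold range, and breast cancer cell lines in 20 µl suspension were incubated on them for 72 h before CellTox Green and then CellTiter-Glo readings. The drug sensitivity score derives from the area under the fitted dose-response curve.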

CAL-148 [11] = assay: as above; details: incubation time: 72 h
How it was run: as §2

COc1cc([C@@H]2c3cc4c(cc3[C@@H](O[C@@H]3O[C@@H]5CO[C@@H](C)O[C@H]5[C@H](O)[C@H]3O)[C@H]3COC(=O)[C@H]23)OCO4)cc(OC)c1O [Etoposide]
Details | drug sensitivity score | normalised viability [%]
BT-549 [1] | – | 77.5
CAL-120 [10] | 1.57 | –
CAL-148 [2] | – | 93.8
CAL-148 [11] | 5.65 | –
MDA-MB-453 [3] | – | 108
MFM-223 [4] | – | 98.7

normalised viability [%]
Details | 3 nM | 10 nM | 30 nM | 100 nM | 1000 nM | 10000 nM
BT-474 | – | 116 | – | – | 96.4 | 87.3
BT-549 [5] | – | 84.9 | – | – | 56 | 46.7
CAL-51 | 98.6 | – | 85.8 | 77.3 | – | –
CAL-85-1 | 99.9 | – | 93.9 | 102 | – | –
CAL-120 [6] | – | 92.5 | – | – | 73.6 | 59.1
CAL-148 [7] | 88.6 | – | 81 | 85.7 | – | –
DU-4475 | 108 | – | 72.3 | 61.3 | – | –
HCC1143 | – | 85.7 | – | – | 66.6 | 47.3
HCC1599 | – | 99.1 | – | – | 94 | 72.3
HCC1937 | – | 78.5 | – | – | 64.9 | 38.9
HDQ-P1 | 90.8 | – | 91 | 33.6 | – | –
Hs578T | – | 94.6 | – | – | 77.1 | 52.4
MDA-MB-231 | – | 121 | – | – | 82.7 | 66.1
MDA-MB-436 | – | 99.8 | – | – | 84.1 | 55.2
MDA-MB-453 [8] | 109 | – | 107 | 99.8 | – | –
MDA-MB-468 | – | 107 | – | – | 73 | 35.9
MFM-223 [9] | – | 99.2 | – | – | 107 | 81.6
SK-BR-3 | – | 98.2 | – | – | 46.5 | 12.9
